# Laboratory results published in US12514800B2, “Personal and home care compositions comprising fatty acids from tung seed oil as antimicrobial preservative” (GALAXY SURFACTANTS LTD., priority 2020, dated 2026).
# Assay: UV absorption (E1% 1 cm)
# Format: physicochemical
# Conditions: at the λmax printed in Table 1 (290 nm fatty acids; 305 nm Homosalate, Octyl salicylate)
# Description: Personal care composition comprising fatty acids, as obtained synthetically from Tung seed oil by aforementioned process, have good UV absorbing activity arising from the conjugated system of the fatty acids and is evident from its value of E1% lcm which is 1600 at 270 nm and 360 at 290 nm. In view of incorporation of the fatty acids in the personal care composition, not only the ingredients of the formulations are protected but also the skin and hair are protected from the ravages of solar radiation when the formulations are applied. […] The same is evident from the values of E1% lcm which is 360 at 290 nm (FIG. 2). UV B radiation of solar spectrum is the most damaging since it causes skin cancer.
smiles,measurement,value
CC1CC(OC(=O)c2ccccc2O)CC(C)(C)C1 (stereo not shown) [Homosalate],"E1%, 1 cm",180
